The values that follow come from publication PMC5908160, “Inhibition of sperm motility in male macaques with EP055, a potential non-hormonal male contraceptive” (PLoS ONE, 2018).

Series [1] concerns the target EPPIN (Homo sapiens, UniProt O95925). Put plainly: AlphaScreen assay of a-EAb binding to EPPIN. To be noted: n = 4, read-out: IC50, inhibition of a-EAb binding to EPPIN. The protocol: The AlphaScreen® assay was carried as previously described. Briefly, recombinant histidine-tagged recombinant EPPIN was pre-incubated with Ni-NTA chelate donor beads (catalog number AS101, Perkin Elmer, Waltham MA) and anti-Eppin 007 antibody was pre-incubated with Protein A acceptor beads (catalog number 6760136, Perkin Elmer, Waltham MA) for 30 minutes. Equal volumes of donor and acceptor bead mixtures were pipetted into white opaque 384-well microplates (OptiPlate-384; PerkinElmer, Waltham, MA) in a final volume of 30 μL. Plates were covered with top seal and transferred to a Synergy 2 Multiplatform automated plate reader (Biotek, Winooski, VT). After shaking for 2 min, plates were read with an excitation 680/30 filter, an emission 570/100 filter and data acquired using Gen5 software (Biotek). Each set of samples was pipetted in 4 replicates. […] A specific signal for each time point was calculated by subtracting the background signal (obtained in the absence of EPPIN) from its respective total signal. […] Non-specific interactions of compound with assay components were measured at the same time with the IgG detection kit ([…] biotinylated rabbit IgG) to generate the bead interaction: 10 μg/ml donor and acceptor beads. […]
In general terms: Bead proximity is the source of the signal in Alpha formats.

A short description of series [2]: EP055 plasma and semen levels in rhesus males after i.v. infusion. It is filed as in vivo, Macaca mulatta. The source says: Semen was collected by direct penile stimulation with a P-T Electronics Model 303 PTE 110 Volt AC stimulator equipped with electrocardiogram pad electrodes (10–35 V, 20 ms duration, 18 pulses/sec) as previously described. Semen was collected weekly for 3 weeks to establish baseline parameters for each male. Samples were inspected visually to determine sperm motility and suitability for the study. Sperm motility data from male 28106 presented in S1 Table is representative of pre-treatment samples. Immediately after collection, the seminal plug was separated from the liquefied fraction, placed into a cryovial, flash frozen in liquid nitrogen, and stored at -80C until evaluation for drug levels. Spermatozoa were prepared by centrifugation (7 min, 200 g) of the liquid portion of the ejaculate and resuspending the sperm pellet in TALP-HEPES medium containing 0.3% bovine serum albumin at 37°C. An aliquot was taken to determine concentration using a hemocytometer, percent motility and forward progression as previously described. Baseline semen samples were collected from each male twice during the week prior to treatment. Semen was collected from each male 6–8 hr, 28–30 hr, and 78 hr post-infusion of low dose EP055 (75–80 mg/kg body weight) intravenously. After a one-week recovery period, a baseline semen sample was obtained, and the following week semen samples were collected as described above after an intravenous infusion of high dose EP055 (125–130 mg/kg).
Sample preparation and LC-MS/MS analysis were done by OpAns LLC (Durham, NC). Plasma samples (both rat and macaque) were thawed at room temperature and processed by adding 160 µL of methanol (including 10 µL internal standard) to 25 µL of the sample. Samples were vortexed for 5 minutes, centrifuged at 2684 x g for 5 minutes. 50 µL of supernatant was removed for analysis by HPLC-MS/MS.
Semen or tissue samples were thawed at room temperature. PBS at pH 7.6 was added to each sample at a ratio of 2:1 and sonicated in an ice chilled bath for 5 minutes before homogenization using a Polytron unit (Kinematica AG, Lucerne, Switzerland). An aliquot (25 uL) of each sample homogenate was processed as described for plasma samples.
Prior to infusion of EP055, each male was sedated with ketamine by the surgical staff at ONPRC and transported to the operating room. After positioning in dorsal recumbency, the male was intubated and placed under inhalant (isoflurane) anesthesia. Bilateral intravenous catheters were placed in cephalic veins, one for infusion and one for back-up. A percutaneous arterial line was placed in the right femoral artery for direct blood pressure measurement. Invasive blood pressure, heart rate, SpO2, and respirations were monitored by the surgical staff throughout the procedure. Initially, the low doses of EP055 in 5% DMSO-PBS 7.6 was infused by i.v. at 75-80 mg/kg, using a Medfusion 3500 pump (Smiths Medical, St. Paul, MN), and was started at a low flow rate ([…]). In 3 of 4 males, a 5-10% increase in blood pressure and heart rate were noted within the first 2-3 minutes of infusion of EP055. In these cases, the infusion was temporarily suspended until these parameters subsequently declined to normal. The infusion rate was then doubled to 1.2 ml/kg/min after 5-10 minutes and the final volume of EP055 infusate was administered. Blood pressure and heart rate remained normal throughout the rest of the infusion interval. The total volume of EP055 infusate ranged from 72 ml – 136 ml, depending upon the weight of the animal, and the duration of infusion was 10-13 minutes. Following completion of the infusion, all animals recovered normally. Animals were monitored by clinical veterinary staff immediately, at 1 hr, 2 hr and 6-8 hr post-infusion, and daily for up to 30 days after the final infusion of EP055. […]

Read-outs that look alike come from different tables or passages of the source. Where only a bound is given, the exact number is not on record here.

Sequence of EPPIN (O95925 22-133): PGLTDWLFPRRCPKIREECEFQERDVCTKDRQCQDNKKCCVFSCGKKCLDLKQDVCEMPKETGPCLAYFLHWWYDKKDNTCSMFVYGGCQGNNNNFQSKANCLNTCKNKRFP

Usually IC50 stands for the concentration that gives 50% inhibition. `COC(=O)NNc1nc(Nc2ccc(NC(C)=O)c(O)c2)nc(SCC(=O)O)n1` [EP055]: the IC50 in series [1] was 1120 µM. The concentration in series [2] (high dose 125–130 mg/kg, 6–8 hr, read-out: Plasma levels) is 0.97 ± 0.66 µM; in series [2] (high dose 125–130 mg/kg, 6–8 hr, read-out: Semen Levels) it was 539 µM; in series [2] (high dose 125–130 mg/kg, 13–17 days, read-out: Semen Levels) it was 0.9 ± 0.9 µM; in series [2] (low dose 75–80 mg/kg, 14–18 days, read-out: Semen Levels), 0.4 ± 0.3 µM; in series [2] (rhesus, 6 and 30 hours after high-dose infusion, read-out: semen levels) it was more than 300 µM. Besides, the concentration at 30 h stood at 0.02 ± 0.01 µM in series [2] (rhesus monkey, plasma, iv, high dose 125–130 mg/kg, read-out: Plasma levels); 0.01 µM in series [2] (rhesus monkey, plasma, iv, low dose 75–80 mg/kg, read-out: Plasma levels); 376 µM in series [2] (rhesus monkey, semen, iv, high dose 125–130 mg/kg, read-out: Semen Levels); 128 ± 46 µM in series [2] (rhesus monkey, semen, iv, low dose 75–80 mg/kg, read-out: Semen Levels). Also, the concentration at 6 h is 0.62 ± 0.3 µM in series [2] (rhesus monkey, plasma, iv, low dose 75–80 mg/kg, 6 hr after infusion, mean ± SEM 4 animals, read-out: Plasma levels) and 293 µM in series [2] (rhesus monkey, semen, iv, low dose 75–80 mg/kg, 6 hr, read-out: Semen Levels). The concentration at 78 h worked out at 101 ± 30 µM in series [2] (rhesus monkey, semen, iv, high dose 125–130 mg/kg) and 61 ± 22 µM in series [2] (rhesus monkey, semen, iv, low dose 75–80 mg/kg). Besides, in series [2] (rhesus monkey, semen/plasma, iv, high dose 125–130 mg/kg, 6–8 hr, read-out: Ratio of S/P), the Kp is 556. In series [2] (rhesus monkey, semen/plasma, iv, low dose 75–80 mg/kg, 6 hr, read-out: Ratio of S/P), the Kp at 6 h is 473. Besides, the detection in plasma entry is listed as “detected” in series [2] (rhesus, 6–8 hours post-infusion) and “barely detectable” in series [2] (rhesus, 28–30 hours post-infusion). Moreover, the “time semen levels detectable post-infusion” value in series [2] (rhesus, low and high dose) is reported as “up to 78 hours”.
